For ten compounds, inhibition, IC50 and fold change (FC) results are on record in ChEMBL document CHEMBL4052690, “2-Chlorophenyl-substituted benzofuro[3,2-b]pyridines with enhanced topoisomerase inhibitory activity: The role of the chlorine substituent” (Bioorg Med Chem Lett, 2017).

Counter-ions that a name gives are not always drawn.

For the first assay, the species on record is Homo sapiens. Nature of the assay: Inhibition of human recombinant DNA topoisomerase 2 assessed as reduction in enzyme-mediated relaxation of supercoiled pBR322 plasmid DNA at 20 uM in presence of 0.1% BSA by ethidium bromide staining based gel electrophoresis and UV spectroscopy.
Details: not given
With `Clc1ccccc1-c1cc(-c2ccoc2)c2oc3ccccc3c2n1`, the inhibition is 14.6%.

Turning to `Clc1cccc(-c2cc(-c3ccsc3)c3oc4ccccc4c3n2)c1`, the inhibition came to 12.2%.

With `Clc1ccc(-c2cc(-c3ccsc3)c3oc4ccccc4c3n2)cc1`, the inhibition worked out at 10.1%.

For `Clc1ccc(-c2cc(-c3ccccc3)c3oc4ccccc4c3n2)cc1`, the inhibition was determined as 17.6%.

Turning to `Clc1ccccc1-c1cc(-c2ccsc2)c2oc3ccccc3c2n1`, the inhibition amounted to 85.8%.

With `Clc1cccc(-c2cc(-c3ccco3)c3oc4ccccc4c3n2)c1`, the inhibition stood at 55.4%.

`Clc1ccccc1-c1cc(-c2cccs2)c2oc3ccccc3c2n1`: the inhibition worked out at 10.8%.

With `Clc1ccc(-c2cc(-c3cccs3)c3oc4ccccc4c3n2)cc1`, the inhibition worked out at 15.1%.

For the next assay, the system named is T47D. Briefly: Antiproliferative activity against human T47D cells after 72 hrs by CCK8 assay. The format is functional, cell-based.
Details: not given
Compound `Clc1ccccc1-c1cc(-c2ccoc2)c2oc3ccccc3c2n1` gave a 50% inhibitory concentration (IC50) of 19.4 µM.

As to `Clc1cccc(-c2cc(-c3ccsc3)c3oc4ccccc4c3n2)c1`, inhibition was half-maximal at 13.2 µM (IC50).

The compound `COc1cccc2c1C(=O)c1c(O)c3c(c(O)c1C2=O)C[C@@](O)(C(=O)CO)C[C@@H]3O[C@H]1C[C@H](N)[C@H](O)[C@H](C)O1` [DOXORUBICIN HYDROCHLORIDE] registered a half-inhibitory concentration (IC50) of 1.29 µM.

For the compound `Clc1ccc(-c2cc(-c3ccsc3)c3oc4ccccc4c3n2)cc1`, the IC50 is more than 50 µM.

`CC[C@@]1(O)C(=O)OCc2c1cc1n(c2=O)Cc2cc3ccccc3nc2-1` [CAMPTOTHECIN] registered an IC50 of 2.31 µM. In other words, the single-digit micromolar range.

Regarding `Clc1ccc(-c2cc(-c3ccccc3)c3oc4ccccc4c3n2)cc1`, the IC50 is more than 50 µM.

`Clc1ccccc1-c1cc(-c2ccsc2)c2oc3ccccc3c2n1` came in with a 50% inhibitory concentration (IC50) of 25.5 µM.

`Clc1cccc(-c2cc(-c3ccco3)c3oc4ccccc4c3n2)c1` returned a concentration for half-maximal inhibition (IC50) of 23.2 µM.

Turning to `Clc1ccccc1-c1cc(-c2cccs2)c2oc3ccccc3c2n1`, the half-maximal inhibitory concentration (IC50) was more than 50 µM.

Regarding `Clc1ccc(-c2cc(-c3cccs3)c3oc4ccccc4c3n2)cc1`, the concentration for half-maximal inhibition (IC50) was more than 50 µM.

In another assay the target is T1, DNA topoisomerase 1 (Homo sapiens) (UniProt P11387).
T1 sequence (whole entry): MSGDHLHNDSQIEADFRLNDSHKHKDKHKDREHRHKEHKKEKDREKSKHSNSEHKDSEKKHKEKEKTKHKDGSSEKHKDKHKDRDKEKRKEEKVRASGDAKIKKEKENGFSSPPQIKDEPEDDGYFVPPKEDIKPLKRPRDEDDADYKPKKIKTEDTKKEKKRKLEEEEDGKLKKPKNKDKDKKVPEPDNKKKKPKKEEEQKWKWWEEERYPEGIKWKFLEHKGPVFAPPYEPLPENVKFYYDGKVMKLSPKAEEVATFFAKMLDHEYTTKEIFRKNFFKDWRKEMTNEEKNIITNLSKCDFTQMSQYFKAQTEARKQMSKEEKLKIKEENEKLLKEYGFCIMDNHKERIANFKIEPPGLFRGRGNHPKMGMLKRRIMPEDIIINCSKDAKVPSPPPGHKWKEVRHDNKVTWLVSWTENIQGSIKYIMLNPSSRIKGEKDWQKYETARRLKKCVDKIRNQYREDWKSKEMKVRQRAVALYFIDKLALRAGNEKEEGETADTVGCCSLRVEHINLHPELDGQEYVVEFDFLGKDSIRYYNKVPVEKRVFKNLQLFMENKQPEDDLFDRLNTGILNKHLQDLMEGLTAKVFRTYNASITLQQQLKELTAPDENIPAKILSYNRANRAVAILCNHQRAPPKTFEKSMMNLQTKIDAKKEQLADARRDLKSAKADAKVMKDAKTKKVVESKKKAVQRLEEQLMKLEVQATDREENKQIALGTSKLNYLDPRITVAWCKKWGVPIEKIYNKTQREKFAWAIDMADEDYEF
Nature of the assay: Inhibition of human recombinant DNA topoisomerase 1 assessed as reduction in enzyme-mediated relaxation of supercoiled pBR322 plasmid DNA at 100 uM in presence of 0.1% BSA by ethidium bromide staining based gel electrophoresis and UV spectroscopy relative to camptothecin.
Details: not given
`Clc1ccccc1-c1cc(-c2ccoc2)c2oc3ccccc3c2n1`: the fold change (FC) worked out at 0.63.

Consider `Clc1cccc(-c2cc(-c3ccsc3)c3oc4ccccc4c3n2)c1`, for which the fold change (FC) is 0.81.

As for `Clc1ccc(-c2cc(-c3ccsc3)c3oc4ccccc4c3n2)cc1`, the fold change (FC) was 0.92.

As for `Clc1ccc(-c2cc(-c3ccccc3)c3oc4ccccc4c3n2)cc1`, the fold change (FC) came to 1.15.

In the case of `Clc1ccccc1-c1cc(-c2ccsc2)c2oc3ccccc3c2n1`, the fold change (FC) came to 1.15.

Regarding `Clc1cccc(-c2cc(-c3ccco3)c3oc4ccccc4c3n2)c1`, the fold change (FC) is 1.15.

Turning to `Clc1ccccc1-c1cc(-c2cccs2)c2oc3ccccc3c2n1`, the fold change (FC) came to 1.08.

For `Clc1ccc(-c2cc(-c3cccs3)c3oc4ccccc4c3n2)cc1`, the fold change (FC) is 1.15.

The species named for another assay is Homo sapiens. Briefly: Inhibition of human recombinant DNA topoisomerase 2 assessed as reduction in enzyme-mediated relaxation of supercoiled pBR322 plasmid DNA at 100 uM in presence of 0.1% BSA by ethidium bromide staining based gel electrophoresis and UV spectroscopy.
Details: not given
`Clc1ccccc1-c1cc(-c2ccoc2)c2oc3ccccc3c2n1`: the inhibition is 83.2%.

On to `Clc1cccc(-c2cc(-c3ccsc3)c3oc4ccccc4c3n2)c1`, for which the inhibition is 93.8%.

With `Clc1ccc(-c2cc(-c3ccsc3)c3oc4ccccc4c3n2)cc1`, the inhibition was found to be 95.7%.

For `Clc1ccc(-c2cc(-c3ccccc3)c3oc4ccccc4c3n2)cc1`, the inhibition amounted to 78.2%.

With `Clc1ccccc1-c1cc(-c2ccsc2)c2oc3ccccc3c2n1`, the inhibition is 100%.

For the compound `Clc1cccc(-c2cc(-c3ccco3)c3oc4ccccc4c3n2)c1`, the inhibition is 85.5%.

As to `Clc1ccccc1-c1cc(-c2cccs2)c2oc3ccccc3c2n1`, the inhibition was determined as 64.1%.

`Clc1ccc(-c2cc(-c3cccs3)c3oc4ccccc4c3n2)cc1`: the inhibition was determined as 58.5%.

In another assay the test system is HeLa. Nature of the assay: Antiproliferative activity against human HeLa cells after 72 hrs by CCK8 assay. The format is functional, cell-based.
Details: not given
On to `Clc1ccccc1-c1cc(-c2ccoc2)c2oc3ccccc3c2n1`, for which the IC50 turned out to be 13.3 µM. That is a double-digit micromolar value.

Take `Clc1cccc(-c2cc(-c3ccsc3)c3oc4ccccc4c3n2)c1`: the 50% inhibitory concentration (IC50) was more than 50 µM.

The compound `COc1cccc2c1C(=O)c1c(O)c3c(c(O)c1C2=O)C[C@@](O)(C(=O)CO)C[C@@H]3O[C@H]1C[C@H](N)[C@H](O)[C@H](C)O1` [DOXORUBICIN HYDROCHLORIDE] came in with a 50% inhibitory concentration (IC50) of 2.77 µM.

On to `Clc1ccc(-c2cc(-c3ccsc3)c3oc4ccccc4c3n2)cc1`, for which the IC50 is more than 50 µM.

`CC[C@@]1(O)C(=O)OCc2c1cc1n(c2=O)Cc2cc3ccccc3nc2-1` [CAMPTOTHECIN] displayed an IC50 of 2.62 µM.

For the compound `Clc1ccc(-c2cc(-c3ccccc3)c3oc4ccccc4c3n2)cc1`, the half-maximal inhibitory concentration (IC50) was more than 50 µM.

The compound `Clc1ccccc1-c1cc(-c2ccsc2)c2oc3ccccc3c2n1` gave a half-maximal inhibitory concentration (IC50) of more than 50 µM.

With `Clc1cccc(-c2cc(-c3ccco3)c3oc4ccccc4c3n2)c1`, the IC50 stood at 40.8 µM.

`Clc1ccccc1-c1cc(-c2cccs2)c2oc3ccccc3c2n1`: 21.7 µM corresponded to half-maximal inhibition (IC50).

Compound `Clc1ccc(-c2cc(-c3cccs3)c3oc4ccccc4c3n2)cc1` returned an IC50 of more than 50 µM.

The test system of the next assay is HCT-15. Briefly: Antiproliferative activity against human HCT15 cells after 72 hrs by CCK8 assay. The format is functional, cell-based. To be noted: HCT-15, 72 h.
`Clc1ccccc1-c1cc(-c2ccoc2)c2oc3ccccc3c2n1` displayed an IC50 of 20.6 µM.

As for `Clc1cccc(-c2cc(-c3ccsc3)c3oc4ccccc4c3n2)c1`, the IC50 turned out to be 13.5 µM.

The compound `COc1cccc2c1C(=O)c1c(O)c3c(c(O)c1C2=O)C[C@@](O)(C(=O)CO)C[C@@H]3O[C@H]1C[C@H](N)[C@H](O)[C@H](C)O1` [DOXORUBICIN HYDROCHLORIDE] yielded an IC50 of 0.94 µM.

With `Clc1ccc(-c2cc(-c3ccsc3)c3oc4ccccc4c3n2)cc1`, the half-maximal inhibitory concentration (IC50) was more than 50 µM.

Compound `Clc1ccc(-c2cc(-c3ccccc3)c3oc4ccccc4c3n2)cc1` showed an IC50 of more than 50 µM.

Compound `Clc1ccccc1-c1cc(-c2ccsc2)c2oc3ccccc3c2n1` displayed a 50% inhibitory concentration (IC50) of 10.6 µM. This counts as double-digit micromolar.

For the compound `Clc1cccc(-c2cc(-c3ccco3)c3oc4ccccc4c3n2)c1`, the IC50 was more than 50 µM.

Take `Clc1ccccc1-c1cc(-c2cccs2)c2oc3ccccc3c2n1`: 16.1 µM corresponded to half-maximal inhibition (IC50).

For `Clc1ccc(-c2cc(-c3cccs3)c3oc4ccccc4c3n2)cc1`, the IC50 was more than 50 µM.

The species named for another assay is Homo sapiens. Briefly: Inhibition of human recombinant DNA topoisomerase 2 assessed as reduction in enzyme-mediated relaxation of supercoiled pBR322 plasmid DNA at 100 uM in presence of 0.1% BSA by ethidium bromide staining based gel electrophoresis and UV spectroscopy relative to etoposide.
Details: not given
For the compound `Clc1ccccc1-c1cc(-c2ccoc2)c2oc3ccccc3c2n1`, the fold change (FC) turned out to be 1.59.

Take `Clc1cccc(-c2cc(-c3ccsc3)c3oc4ccccc4c3n2)c1`: the fold change (FC) is 1.79.

Regarding `Clc1ccc(-c2cc(-c3ccsc3)c3oc4ccccc4c3n2)cc1`, the fold change (FC) is 1.83.

Turning to `Clc1ccc(-c2cc(-c3ccccc3)c3oc4ccccc4c3n2)cc1`, the fold change (FC) came to 1.19.

`Clc1ccccc1-c1cc(-c2ccsc2)c2oc3ccccc3c2n1`: the fold change (FC) was 1.52.

As to `Clc1cccc(-c2cc(-c3ccco3)c3oc4ccccc4c3n2)c1`, the fold change (FC) came out at 1.3.

`Clc1ccccc1-c1cc(-c2cccs2)c2oc3ccccc3c2n1`: the fold change (FC) is 0.97.

For `Clc1ccc(-c2cc(-c3cccs3)c3oc4ccccc4c3n2)cc1`, the fold change (FC) was found to be 0.89.

The species named for the next assay is Homo sapiens. Briefly: Inhibition of human recombinant DNA topoisomerase 2 assessed as reduction in enzyme-mediated relaxation of supercoiled pBR322 plasmid DNA at 20 uM in presence of 0.1% BSA by ethidium bromide staining based gel electrophoresis and UV spectroscopy relative to etoposide.
Details: not given
With `Clc1ccccc1-c1cc(-c2ccoc2)c2oc3ccccc3c2n1`, the fold change (FC) came to 0.46.

For the compound `Clc1cccc(-c2cc(-c3ccsc3)c3oc4ccccc4c3n2)c1`, the fold change (FC) came to 0.39.

`Clc1ccc(-c2cc(-c3ccsc3)c3oc4ccccc4c3n2)cc1`: the fold change (FC) is 0.32.

Regarding `Clc1ccc(-c2cc(-c3ccccc3)c3oc4ccccc4c3n2)cc1`, the fold change (FC) amounted to 0.48.

In the case of `Clc1ccccc1-c1cc(-c2ccsc2)c2oc3ccccc3c2n1`, the fold change (FC) amounted to 2.33.

As to `Clc1cccc(-c2cc(-c3ccco3)c3oc4ccccc4c3n2)c1`, the fold change (FC) amounted to 1.51.

Regarding `Clc1ccccc1-c1cc(-c2cccs2)c2oc3ccccc3c2n1`, the fold change (FC) came out at 0.29.

As to `Clc1ccc(-c2cc(-c3cccs3)c3oc4ccccc4c3n2)cc1`, the fold change (FC) was found to be 0.41.

For the next assay, the target named is T1, DNA topoisomerase 1 (Homo sapiens). Nature of the assay: Inhibition of human recombinant DNA topoisomerase 1 assessed as reduction in enzyme-mediated relaxation of supercoiled pBR322 plasmid DNA at 100 uM in presence of 0.1% BSA by ethidium bromide staining based gel electrophoresis and UV spectroscopy.
Details: not given
Regarding `Clc1ccccc1-c1cc(-c2ccoc2)c2oc3ccccc3c2n1`, the inhibition was 54.6%.

As for `Clc1cccc(-c2cc(-c3ccsc3)c3oc4ccccc4c3n2)c1`, the inhibition was 70.2%.

`Clc1ccc(-c2cc(-c3ccsc3)c3oc4ccccc4c3n2)cc1`: the inhibition came to 79.9%.

As for `Clc1ccc(-c2cc(-c3ccccc3)c3oc4ccccc4c3n2)cc1`, the inhibition came to 100%.

On to `Clc1ccccc1-c1cc(-c2ccsc2)c2oc3ccccc3c2n1`, for which the inhibition came out at 100%.

For the compound `Clc1cccc(-c2cc(-c3ccco3)c3oc4ccccc4c3n2)c1`, the inhibition is 100%.

Take `Clc1ccccc1-c1cc(-c2cccs2)c2oc3ccccc3c2n1`: the inhibition is 93.4%.

`Clc1ccc(-c2cc(-c3cccs3)c3oc4ccccc4c3n2)cc1`: the inhibition stood at 100%.
